Assay results: the NIST ThermoML archive (doi:10.1016/j.jct.2011.10.023)

Details: Liquid, Vibrating tube method

CCCCCO [pentan-1-ol]
mass density [kg/m3]
Details | 278.15 K | 288.15 K | 298.15 K | 308.15 K | 318.15 K | 328.15 K | 338.15 K | 348.15 K | 358.15 K
100 kPa | 825.2 | 818 | 810.7 | 803.3 | 795.8 | 788.2 | 780.3 | 772.3 | 763.8
1000 kPa | 825.8 | 818.7 | 811.3 | 804 | 796.6 | 789 | 781.2 | 773.1 | 764.8
5000 kPa | 828.5 | 821.5 | 814.2 | 807 | 799.8 | 792.3 | 784.8 | 776.9 | 768.8
10000 kPa | 831.6 | 824.8 | 817.7 | 810.7 | 803.6 | 796.3 | 788.9 | 781.2 | 773.5
15000 kPa | 834.7 | 828 | 821 | 814 | 807.2 | 800.1 | 792.9 | 785.5 | 777.9
20000 kPa | 837.6 | 831.1 | 824.3 | 817.5 | 810.7 | 803.8 | 796.7 | 789.5 | 782.1
25000 kPa | 840.4 | 834 | 827.3 | 820.7 | 814 | 807.2 | 800.3 | 793.3 | 786.1
30000 kPa | 843.2 | 836.9 | 830.3 | 823.8 | 817.3 | 810.6 | 803.8 | 796.9 | 789.9
35000 kPa | 845.9 | 839.7 | 833.2 | 826.8 | 820.4 | 813.8 | 807.2 | 800.4 | 793.6
40000 kPa | 848.6 | 842.4 | 836 | 829.7 | 823.4 | 817 | 810.5 | 803.8 | 797.1
45000 kPa | 851.1 | 845 | 838.7 | 832.5 | 826.3 | 820 | 813.6 | 807.1 | 800.5
50000 kPa | 853.6 | 847.6 | 841.4 | 835.3 | 829.1 | 822.9 | 816.6 | 810.3 | 803.8
55000 kPa | 856.1 | 850.1 | 844 | 838 | 831.9 | 825.8 | 819.6 | 813.3 | 807
60000 kPa | 858.4 | 852.5 | 846.4 | 840.4 | 834.6 | 828.4 | 822.5 | 816.2 | 810

CCCCCCCO [heptan-1-ol]
mass density [kg/m3]
Details | 278.15 K | 288.15 K | 298.15 K | 308.15 K | 318.15 K | 328.15 K | 338.15 K | 348.15 K | 358.15 K
100 kPa | 832.4 | 825.5 | 818.5 | 811.4 | 804.3 | 797.1 | 789.7 | 782.1 | 774.2
1000 kPa | 833 | 826.1 | 819.1 | 812.1 | 805 | 797.8 | 790.4 | 782.9 | 775.1
5000 kPa | 835.4 | 828.6 | 821.8 | 814.7 | 807.9 | 800.9 | 793.7 | 786.3 | 778.7
10000 kPa | 838.3 | 831.7 | 824.9 | 818.3 | 811.4 | 804.6 | 797.5 | 790.4 | 783
15000 kPa | 841.2 | 834.7 | 828.1 | 821.5 | 814.8 | 808.1 | 801.2 | 794.2 | 787.1
20000 kPa | 843.9 | 837.6 | 831.1 | 824.6 | 818.1 | 811.5 | 804.7 | 797.9 | 790.9
25000 kPa | 846.4 | 840.4 | 833.9 | 827.6 | 821.2 | 814.7 | 808.1 | 801.4 | 794.6
30000 kPa | 849.2 | 843.1 | 836.7 | 830.5 | 824.2 | 817.8 | 811.4 | 804.8 | 798.2
35000 kPa | 851.7 | 845.7 | 839.5 | 833.3 | 827.1 | 820.8 | 814.6 | 808.1 | 801.5
40000 kPa | 854.2 | 848.2 | 842.1 | 836 | 829.9 | 823.8 | 817.5 | 811.3 | 804.9
45000 kPa | 856.6 | 850.7 | 844.7 | 838.7 | 832.7 | 826.6 | 820.6 | 814.3 | 808.1
50000 kPa | 859 | 853.1 | 847.2 | 841.3 | 835.4 | 829.4 | 823.4 | 817.3 | 811.1
55000 kPa | 861.3 | 855.5 | 849.7 | 843.8 | 838 | 832.1 | 826.2 | 820.2 | 814.1
60000 kPa | 863.4 | 857.8 | 852.1 | 846.1 | 840.4 | 834.5 | 828.7 | 822.8 | 816.9

CCCCCCO [hexan-1-ol]
mass density [kg/m3]
Details | 278.15 K | 288.15 K | 298.15 K | 308.15 K | 318.15 K | 328.15 K | 338.15 K | 348.15 K | 358.15 K
100 kPa | 828.9 | 822.1 | 814.9 | 807.8 | 800.5 | 793 | 785.4 | 777.6 | 769.4
1000 kPa | 829.5 | 822.7 | 815.6 | 808.4 | 801.2 | 793.7 | 786.2 | 778.4 | 770
5000 kPa | 832 | 825.3 | 818.4 | 811.4 | 804.3 | 797 | 789.6 | 782 | 774.2
10000 kPa | 835 | 828.5 | 821.7 | 814.8 | 807.9 | 800.8 | 793.6 | 786.2 | 778.6
15000 kPa | 838 | 831.6 | 824.9 | 818.2 | 811.4 | 804.4 | 797.4 | 790.2 | 782.8
20000 kPa | 840.8 | 834.6 | 828 | 821.4 | 814.7 | 807.9 | 801 | 794.1 | 786.9
25000 kPa | 843.6 | 837.4 | 830.9 | 824.5 | 817.9 | 811.2 | 804.5 | 797.6 | 790.7
30000 kPa | 846.3 | 840.2 | 833.8 | 827.5 | 821 | 814.4 | 807.9 | 801.2 | 794.3
35000 kPa | 848.9 | 842.9 | 836.6 | 830.3 | 824 | 817.6 | 811.1 | 804.6 | 797.9
40000 kPa | 851.4 | 845.5 | 839.4 | 833.2 | 826.9 | 820.6 | 814.2 | 807.8 | 801.3
45000 kPa | 853.9 | 848 | 842 | 835.9 | 829.7 | 823.5 | 817.3 | 811 | 804.6
50000 kPa | 856.3 | 850.5 | 844.6 | 838.5 | 832.4 | 826.4 | 820.2 | 814 | 807.7
55000 kPa | 858.7 | 853 | 847.1 | 841.1 | 835.1 | 829.1 | 823.1 | 817 | 810.8
60000 kPa | 860.9 | 855.4 | 849.6 | 843.5 | 837.7 | 831.6 | 825.7 | 819.7 | 813.5
